In PubChem BioAssay (NCI):
Where “and” joins values, the source holds several entries; their conditions need not be identical. Equal values may be shown once.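 How tested: cells in 96-well plates exposed to compound for 48 hours at five concentrations. At the GI50, growth is halved. Definition used: TGI = concentration required for complete inhibition of growth.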

Experiments:
Assay in all cases: DTP human tumour cell line panel, 48 h
[1] = test system: SF-268 CNS
[2] = test system: SNB-19 CNS
[3] = test system: MALME-3M melanoma
[4] = test system: RPMI-8226 leukemia
[5] = test system: HL-60(TB) leukemia
[6] = test system: K-562 leukemia
[7] = test system: OVCAR-8 ovarian
[8] = test system: NCI-H522 lung
[9] = test system: HCC-2998 colon
[10] = test system: SF-295 CNS

O=c1oc2ccc(Br)cc2c(=O)n1-c1ccc(I)cc1F
GI50 [1]: 383 nM | TGI [1]: 4.82 µM | GI50 [2]: 363 nM | TGI [2]: > 70 µM | GI50 [3]: 320 nM | TGI [3]: 1.27 µM | GI50 [4]: 266 nM | TGI [4]: 1.16 µM | GI50 [5]: 375 nM | TGI [5]: 1.99 µM | GI50 [6]: 389 nM | TGI [6]: > 100 µM | GI50 [7]: 362 nM | TGI [7]: 5.98 µM | GI50 [8]: 277 nM | TGI [8]: 1.65 µM | GI50 [9]: 2200 nM | TGI [9]: 8.78 µM | GI50 [10]: 1500 nM | TGI [10]: 3.12 µM

Cc1ccccc1-n1c2nc(=O)n(C)c(=O)c-2nc2ccccc21
TGI [1]: 32.1 µM | TGI [2]: 28.8 µM | TGI [3]: 16.8 µM | TGI [4]: 44.9 µM | TGI [5]: 35.8 µM | TGI [6]: 43.6 µM | TGI [7]: 33.6 µM | TGI [8]: 29.4 µM | TGI [9]: 24.2 µM | TGI [10]: 27.5 µM

COc1cc(C(=O)Nc2cc(OC)c3ccn(C)c3c2)cc2c1C[C@]1(C)CC[C@@H](O)C(C)(C)[C@H]1O2
GI50 [1]: 1990 nM | TGI [1]: > 100 µM | GI50 [2]: 2700 nM | TGI [2]: 90.2 µM | GI50 [3]: 2740 nM | TGI [3]: > 100 µM | GI50 [4]: 39.2 nM | TGI [4]: 1.16 µM | GI50 [5]: 74 nM | TGI [5]: 3.43 µM | GI50 [6]: 597 nM | TGI [6]: > 100 µM | GI50 [7]: 2690 nM | TGI [7]: 58 µM | GI50 [8]: 1440 nM | TGI [8]: 7.4 µM | GI50 [9]: 3740 nM | TGI [9]: 49.8 µM | GI50 [10]: 30.2 nM | TGI [10]: 0.143 µM

Oc1cc2ccccc2c(-c2c(O)c(O)cc3ccccc23)c1O
GI50 [1]: 1880 nM | TGI [1]: 23.3 µM | GI50 [2]: 2750 nM | TGI [2]: 27.8 µM | GI50 [3]: 3850 nM | TGI [3]: 21.4 µM | GI50 [4]: 743 nM | TGI [4]: > 28.2 µM | GI50 [5]: 1590 nM | TGI [5]: > 20.6 µM | GI50 [6]: 73.8 nM | GI50 [7]: 2160 nM | TGI [7]: > 24 µM | GI50 [8]: 2310 nM | TGI [8]: 21 µM | GI50 [9]: 506 nM | TGI [9]: 2.61 µM | GI50 [10]: 770 nM | TGI [10]: > 29.6 µM

CC(=O)Oc1ccc(/C(=C(\C)c2ccc(Cl)cc2)c2ccc(OCCN3CCCCC3)cc2)cc1
GI50 [1]: 1820 nM | TGI [1]: 3.86 µM | GI50 [2]: 2260 nM | TGI [2]: 5.8 µM | GI50 [3]: 1960 nM | TGI [3]: 3.91 µM | GI50 [4]: 2100 nM | TGI [4]: 4.64 µM | GI50 [5]: 2090 nM | TGI [5]: 4.35 µM | GI50 [6]: 1210 nM | TGI [6]: 3.59 µM | GI50 [7]: 2150 nM | TGI [7]: 4.88 µM | GI50 [8]: 1710 nM | TGI [8]: 3.49 µM | GI50 [9]: 1870 nM | TGI [9]: 3.68 µM | GI50 [10]: 1720 nM | TGI [10]: 3.27 µM

CCCCCCCCCCCCCCCCC(=O)O.CCCCCCCCCCCCCCCCCC(=O)O.CCCCCCCCCCCCCCCCCC(=O)O.CCCCCCCCCCCCCCCCCC(=O)O.CCCCCCCCCCCCCCCCCC(=O)O.CO[CH-]OC12COC1CC(O)C1(C)C(O)C(OC(C)O)C3=C(C)C(OC(=O)C(O)C([NH-])c4ccccc4)CC(O)(C(OC(=O)c4ccccc4)C21)C3(C)C.[Cu+].[Zn].[Zn].[Zn].[Zn].[Zn] (centres undefined)
TGI [1]: 6.25 µM | GI50 [2]: 10.5 nM | TGI [2]: > 11.5 µM | GI50 [3]: 9.47 nM | TGI [3]: 6.91 µM | GI50 [4]: 7.76 nM | TGI [4]: > 25 µM | GI50 [5]: 4.66 nM | TGI [5]: > 25 µM | GI50 [6]: 5 nM | TGI [6]: > 25 µM | GI50 [7]: 10.2 nM | TGI [7]: > 25 µM | GI50 [8]: 10.3 nM | TGI [8]: 6.07 µM | GI50 [9]: 6.47 nM | GI50 [10]: 10.2 nM | TGI [10]: 2.9 µM

COc1cc(-c2cc(-c3cc(OC)c(OC)c(OC)c3)nc3nc(N)[nH]c(=O)c23)ccc1Oc1ccnc2cc(Cl)ccc12
GI50 [1]: 3430 nM | TGI [1]: > 100 µM | GI50 [2]: 6620 nM | TGI [2]: > 100 µM | GI50 [3]: 3500 nM | TGI [3]: > 100 µM | GI50 [4]: 2520 nM | TGI [4]: 10.2 µM | GI50 [5]: 2450 nM | TGI [5]: 8.22 µM | GI50 [6]: 379 nM | TGI [6]: > 100 µM | GI50 [7]: 3170 nM | TGI [7]: 79.5 µM | GI50 [8]: 2130 nM | TGI [8]: 15.5 µM | GI50 [9]: 3140 nM | TGI [9]: 11.3 µM | GI50 [10]: 4520 nM | TGI [10]: 85.5 µM

Cc1cc(C)nc(NS(=O)(=O)c2ccc(Nc3c4ccc(Cl)cc4nc4c(C(=O)NCCN(C)C)cccc34)cc2)n1
TGI [1]: > 100 µM | TGI [2]: > 100 µM | TGI [3]: > 100 µM | TGI [4]: > 100 µM | TGI [5]: > 100 µM | TGI [6]: > 100 µM | TGI [7]: > 100 µM | TGI [8]: > 100 µM | TGI [9]: > 100 µM | TGI [10]: > 100 µM

Cc1ccc(S(=O)OCC23CC4CC(CC(C4)C2)C3)cc1 (centres undefined)
TGI [1]: > 100 µM | TGI [2]: > 100 µM | TGI [3]: > 100 µM | TGI [4]: > 100 µM | TGI [5]: > 100 µM | TGI [6]: > 100 µM | TGI [7]: > 100 µM | TGI [8]: > 100 µM | TGI [9]: > 100 µM | TGI [10]: > 100 µM

Cc1c(O)c2c(c(O)c1Br)C(=O)C=CC2=O
TGI [1]: 4.63 µM and 6.51 µM | TGI [2]: 3.74 µM | GI50 [3]: 552 nM | TGI [3]: 0.776 µM and 1.81 µM | GI50 [4]: 138 nM | TGI [4]: 1.01 µM and 0.436 µM | TGI [5]: 0.113 µM and 0.016 µM | GI50 [6]: 59.9 nM | TGI [6]: 0.66 µM and 0.334 µM | TGI [7]: 2.74 µM | GI50 [8]: 179 nM | TGI [8]: 0.337 µM and 0.365 µM | TGI [9]: 3.31 µM and 3.82 µM | GI50 [10]: 14000 nM | TGI [10]: 3.15 µM and 28.2 µM

COc1cc2c(cc1Nc1nc(Nc3cccc(F)c3C(N)=O)c3cc[nH]c3n1)N(C(=O)CN1CCN(C(C)C)CC1)CC2
GI50 [1]: 3980 nM | TGI [1]: 8.34 µM | GI50 [2]: 4110 nM | TGI [2]: 8.27 µM | GI50 [3]: 3170 nM | TGI [3]: 7.06 µM | GI50 [4]: 4580 nM | TGI [4]: 10.9 µM | GI50 [5]: 1420 nM | TGI [5]: 5.6 µM | GI50 [6]: 4670 nM | TGI [6]: 11 µM | GI50 [7]: 4540 nM | TGI [7]: 10.2 µM | GI50 [8]: 3890 nM | TGI [8]: 7.69 µM | GI50 [9]: 3080 nM | TGI [9]: 6.31 µM | GI50 [10]: 4320 nM | TGI [10]: 9.26 µM

COc1cc(/C=C/C(=O)N2CCN(C(=O)c3cc(OC)c(OC)c(OC)c3)CC2)ccc1OCCCOc1cc2c(cc1OC)C(=O)N1CCC[C@H]1C=N2
GI50 [1]: 284 nM | TGI [1]: 4.03 µM | GI50 [2]: 362 nM | TGI [2]: > 40.3 µM | GI50 [3]: 175 nM | TGI [3]: 0.319 µM | GI50 [4]: 431 nM | TGI [4]: > 100 µM | GI50 [5]: 214 nM | GI50 [6]: 324 nM | TGI [6]: > 100 µM | GI50 [7]: 345 nM | GI50 [8]: 213 nM | TGI [8]: 3.25 µM | GI50 [9]: 296 nM | TGI [9]: 0.838 µM | TGI [10]: 0.875 µM

O=C(Nc1n[nH]c2nnc(-c3cccnc3)cc12)C1CC1
GI50 [1]: > 11800 nM | TGI [1]: > 25 µM | GI50 [2]: > 11900 nM | TGI [2]: > 25 µM | GI50 [3]: > 25000 nM | TGI [3]: > 25 µM | GI50 [4]: > 25000 nM | TGI [4]: > 25 µM | GI50 [5]: > 13600 nM | TGI [5]: > 22.6 µM | GI50 [6]: 1740 nM | TGI [6]: > 25 µM | GI50 [7]: 7650 nM | TGI [7]: > 25 µM | GI50 [8]: > 5130 nM | TGI [8]: > 25 µM | GI50 [9]: 8950 nM | TGI [9]: > 25 µM | GI50 [10]: 338 nM | TGI [10]: > 7.49 µM
